The target in this assay is MAGL (recombinant wild-type) (Homo sapiens (Human), UniProt Q99685). Nature of the assay: 4-NPA assay: MAGL inhibitory activity by hydrolysis of 4-nitrophenylacetate (absorbance at 405 nm). The format is biochemical. To be noted: measured in 4-NPA assay (footnote [a]); 1 nM MAGL, 300 μM 4-nitrophenylacetate. The method, then: This assay is hereinafter abbreviated “4-NPA assay”.
The plate was shaked for 1 min at 2000 rpm (Variomag Teleshake) and then incubated for 15 min at RT. […] The final concentrations in the assay were 1 nM MAGL and 300 μM 4-Nitrophenylacetate. […] A second measurement was then done after incubation for 80 min at RT. From the two measurements, the slope was calculated by subtracting the first from the second measurement.

Each structure is given as a SMILES string.

As a reminder, the IC50 is the concentration at which inhibition is half-maximal.

Sequence of MAGL (recombinant wild-type) (Q99685 whole entry, species assumed): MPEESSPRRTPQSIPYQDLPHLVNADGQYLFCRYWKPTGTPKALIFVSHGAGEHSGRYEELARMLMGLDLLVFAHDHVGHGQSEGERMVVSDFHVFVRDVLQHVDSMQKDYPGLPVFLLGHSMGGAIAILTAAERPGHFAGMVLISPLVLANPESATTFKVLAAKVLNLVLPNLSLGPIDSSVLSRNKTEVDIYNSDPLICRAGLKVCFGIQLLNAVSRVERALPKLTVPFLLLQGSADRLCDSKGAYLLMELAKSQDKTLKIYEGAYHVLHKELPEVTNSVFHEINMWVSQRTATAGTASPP

Regarding `O=C1CO[C@H]2CCN(C(=O)N3CCC(Cc4ccc(C(F)(F)F)cc4C4CCCC4)CC3)C[C@H]2N1` [Example 58], the IC50 is 0.003 µM.

Regarding `O=C1CO[C@H]2CCN(C(=O)N3CCC(COc4ccc(F)cc4F)CC3)C[C@H]2N1` [Example 32], the IC50 was found to be 0.02 µM. In the case of `O=C1CO[C@H]2CCN(C(=O)N3CCC(OCc4ccc(Cl)cc4)C3)C[C@H]2N1` (stereo partly drawn) [Example 97], the IC50 is 0.146 µM. The figure for `Cc1cc(C(F)(F)F)ccc1CC1CCN(C(=O)N2CC[C@@H]3OCC(=O)N[C@@H]3C2)CC1` [Example 98] is 0.01 µM; for `O=C1CO[C@H]2CCN(C(=O)N3CCC(COc4ccc(C(F)(F)F)nc4)CC3)C[C@H]2N1` [Example 43, (4aR,8aS)-6-(4-(((6-(trifluoromethyl)pyridin-3-yl)oxy)methyl)piperidine-1-carbonyl)hexahydro-2H-pyrido[4,3-b][1,4]oxazin-3(4H)-one] it is 0.529 µM; for `O=C1CO[C@H]2CCN(C(=O)N3CC(OCc4cc(C(F)(F)F)c(F)cc4F)C3)C[C@H]2N1` [Example 112] it is 0.012 µM.

For `N#Cc1cc(F)ccc1OCC1CCN(C(=O)N2CC[C@@H]3OCC(=O)N[C@@H]3C2)CC1` [Example 55], the IC50 came out at 0.079 µM.

As to `O=C1CO[C@H]2CCN(C(=O)N3CCC(Cc4ccc(C(F)(F)F)cc4)CC3)C[C@@H]2N1` [Example 14], the IC50 was found to be 0.191 µM. The figure for `O=C1CO[C@H]2CCN(C(=O)N3CC(OCc4ccc(Cl)cc4C(F)(F)F)C3)C[C@H]2N1` [Example 116] is 0.004 µM; for `O=C1CO[C@H]2CCN(C(=O)N3CC(COc4ccc(C(F)(F)F)cc4F)C3)C[C@H]2N1` [Example 47] it is 0.005 µM; for `CC(C)(C)c1csc(CC2CCN(C(=O)N3CC[C@H]4OCC(=O)N[C@H]4C3)CC2)n1` [Example 5] it is 1.3 µM. The figure for `O=C1CO[C@H]2CCN(C(=O)N3CCN(Cc4ccc(C(F)(F)F)cc4)CC3)C[C@H]2N1` (racemic) [Example 21, rac-(4aR,8aS)-6-(4-(4-(Trifluoromethyl)benzyl)piperazine-1-carbonyl)hexahydro-2H-pyrido[4,3-b][1,4]oxazin-3(4H)-one] is 0.909 µM. The figure for `O=C1CO[C@H]2CCN(C(=O)N3CCC(Cc4ccc(Cl)cc4)CC3)C[C@H]2N1` [Example 10] is 0.039 µM; for `C[C@H]1O[C@H]2CCN(C(=O)N3CCC(Cc4ccc(C(F)(F)F)cc4)CC3)C[C@H]2NC1=O` [Example 67] it is 0.12 µM; for `O=C1CO[C@H]2CCN(C(=O)N3CCC(Oc4ccc(C(F)(F)F)cc4Cl)CC3)C[C@H]2N1` [Example 40] it is 0.012 µM. On to `O=C1CO[C@H]2CCN(C(=O)N3CC(OCc4ccc(C(F)(F)F)cc4F)C3)C[C@H]2N1` [Example 27], for which the IC50 came out at 0.007 µM. The figure for `O=C1CO[C@H]2CCN(C(=O)N3CC(OCc4ccc(C(F)(F)F)cc4F)(C(F)(F)F)C3)C[C@H]2N1` [Example 110] is 2.18 µM.

For `C[C@H]1CN(C(=O)N2CC[C@@H]3OCC(=O)N[C@@H]3C2)CC[C@H]1COc1ccc(F)cc1Cl` [Example 74], the IC50 is 0.003 µM. As for `COc1cc(C(F)(F)F)ccc1COC1CN(C(=O)N2CC[C@@H]3OCC(=O)N[C@@H]3C2)C1` [Example 115], the IC50 was 0.003 µM.

`O=C1CO[C@H]2CCN(C(=O)N3CCC(Cn4cnc(C(F)(F)F)c4)CC3)C[C@H]2N1` [Example 60]: the IC50 came to 0.68 µM.

For `Cc1cc(F)ccc1OCC1CCN(C(=O)N2CC[C@@H]3OCC(=O)N[C@@H]3C2)CC1` [Example 61], the IC50 is 0.011 µM. The figure for `O=C1CO[C@H]2CCN(C(=O)N3CCC(Oc4cccc(C(F)(F)F)c4)CC3)C[C@H]2N1` [Example 44] is 0.038 µM; for `O=C1CO[C@H]2CCN(C(=O)N3CCC(Cc4nc5c(s4)CCC5)CC3)C[C@H]2N1` [Example 16] it is 0.208 µM; for `O=C1CO[C@H]2CCN(C(=O)N3CCC(Oc4ccc(C(F)(F)F)cc4)CC3)C[C@H]2N1` [Example 12, (+)- or (−)-(4aR,8aS)-6-(4-(4-(Trifluoromethyl)phenoxy)piperidine-1-carbonyl)hexahydro-2H-pyrido[4,3-b][1,4]oxazin-3(4H)-one] it is 0.077 µM. The figure for `O=C1CO[C@H]2CCN(C(=O)N3CC(OCc4ccc(C(F)(F)F)cc4)C3)C[C@H]2N1` [Example 76] is 0.008 µM; for `CC1C(OCc2ccc(C(F)(F)F)cc2)CN1C(=O)N1CC[C@@H]2OCC(=O)N[C@@H]2C1` (stereo partly drawn) [Example 117] it is 0.01 µM; for `O=C1CO[C@H]2CCN(C(=O)N3CCC(OCc4ccccc4Cl)C3)C[C@H]2N1` (stereo partly drawn) [Example 93] it is 0.124 µM. The figure for `O=C1CO[C@H]2CCN(C(=O)N3CC(OCc4ccc(C(F)(F)F)cc4F)C3)C[C@H]2N1` [Example 29] is 0.005 µM.

In the case of `O=C1CO[C@H]2CCN(C(=O)N3CCC(Cc4ccc(C(F)(F)F)cc4C4CC4)CC3)C[C@H]2N1` [Example 95], the concentration for half-maximal inhibition (IC50) was found to be 0.008 µM. As for `O=C1CO[C@H]2CCN(C(=O)N3CC(F)(COc4ccc(F)cc4Cl)C3)C[C@H]2N1` [Example 109], the 50% inhibitory concentration (IC50) worked out at 0.223 µM. The figure for `O=C1CO[C@H]2CCN(C(=O)N3CCN(Cc4ccc(C(F)(F)F)cc4N4CCCC4)CC3)C[C@H]2N1` [Example 56] is 0.042 µM; for `O=C1CO[C@H]2CCN(C(=O)N3CCC(Cc4ccc(C(F)(F)F)cn4)CC3)C[C@H]2N1` [Example 25] it is 0.452 µM.

As for `CC1(OCc2ccc(C(F)(F)F)cc2F)CN(C(=O)N2CC[C@@H]3OCC(=O)N[C@@H]3C2)C1` [Example 111], the IC50 worked out at 0.02 µM. The figure for `N#Cc1ccc(CC2CCN(C(=O)N3CC[C@@H]4OCC(=O)N[C@@H]4C3)CC2)cc1` [Example 34, (+)- or (−)-4-[[1-[(4aR,8aS)-3-Oxo-4,4a,5,7,8,8a-hexahydropyrido[4,3-b][1,4]oxazine-6-carbonyl]-4-piperidyl]methyl]benzonitrile] is 0.438 µM; for `O=C1CO[C@@H]2CCN(C(=O)N3CCC(COc4ccc(OC(F)(F)F)cc4Cl)CC3)C[C@@H]2N1` [Example 45] it is 0.85 µM. The figure for `O=C1CO[C@H]2CCN(C(=O)N3CCC(Cc4ccc(Cl)cc4)CC3)C[C@H]2N1` [Example 35] is 0.019 µM; for `O=C1CO[C@@H]2CCN(C(=O)N3CCC(COc4ccc(C(F)(F)F)nc4)CC3)C[C@@H]2N1` [Example 42, (4aS,8aR)-6-(4-(((6-(Trifluoromethyl)pyridin-3-yl)oxy)methyl)piperidine-1-carbonyl)hexahydro-2H-pyrido[4,3-b][1,4]oxazin-3(4H)-one] it is 1.2 µM; for `CC(C)(C)c1cnc(CC2CCN(C(=O)N3CC[C@@H]4OCC(=O)N[C@@H]4C3)CC2)o1` [Example 38] it is 0.16 µM. The figure for `O=C1CO[C@H]2CCN(C(=O)N3CC(OCc4ccc(C(F)(F)F)cc4Cl)C3)C[C@H]2N1` [Example 75] is 0.002 µM.

Values taken from patent US11802133B2, “Heterocyclic compounds as monoacylglycerol lipase inhibitors” (Hoffmann-La Roche Inc., priority 2018, dated 2023).
